Measured values reported in publication PMC2219262 (The Journal of General Physiology, 1996).
“And” between values parts separate entries of the source, which are not always exact repeats. Equal entries are not always repeated. “Also recorded” adds a separate entry of the source. Where two headings read alike, the source gives them in different places.

Experiments:
Na+ current (INa) = Na+ current (INa) (Doryteuthis opalescens, UniProt Q25377); format: cell-based, squid Loligo opalescens
Ca2+ current (ICa) = format: cell-based, squid Loligo opalescens
[1] = target: K+ current (IK), K channels (Doryteuthis opalescens, UniProt Q25376); format: cell-based, squid Loligo opalescens
K+ current (IK), K channels, sequence (Q25376 1-488): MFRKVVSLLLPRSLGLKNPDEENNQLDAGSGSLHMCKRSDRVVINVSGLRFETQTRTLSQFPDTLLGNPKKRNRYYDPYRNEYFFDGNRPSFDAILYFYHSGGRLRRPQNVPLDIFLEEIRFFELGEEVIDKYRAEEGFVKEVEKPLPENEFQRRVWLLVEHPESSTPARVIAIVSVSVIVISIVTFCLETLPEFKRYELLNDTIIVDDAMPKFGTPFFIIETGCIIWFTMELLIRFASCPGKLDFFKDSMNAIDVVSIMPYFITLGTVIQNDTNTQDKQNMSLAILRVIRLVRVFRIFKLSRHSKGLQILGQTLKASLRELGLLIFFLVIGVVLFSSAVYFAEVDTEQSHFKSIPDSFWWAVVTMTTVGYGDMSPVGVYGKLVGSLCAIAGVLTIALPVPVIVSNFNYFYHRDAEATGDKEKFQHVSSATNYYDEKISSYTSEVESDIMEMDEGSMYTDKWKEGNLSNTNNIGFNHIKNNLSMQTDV

IK in GH3 cells = format: cell-based, rat; conditions: read-out: apparent KD for IK block
[2] = ref Kaufman et al., 1975; cited from earlier work
pKa of methadone = format: physicochemical; conditions: implied by pKa
[3] = Fig. 12 A: 100 μM, +60 mV, 10K//100K, model C
[4] = Fig. 4: 100 μM, +80 mV, 100K//200K
[5] = Fig. 12 B: 10 °C, 100 μM, +60 mV, 10K//50K
[6] = Fig. 12 B: 20 °C, 100 μM, +60 mV, 10K//50K

Na+ current (INa), sequence (Q25377 1-1784): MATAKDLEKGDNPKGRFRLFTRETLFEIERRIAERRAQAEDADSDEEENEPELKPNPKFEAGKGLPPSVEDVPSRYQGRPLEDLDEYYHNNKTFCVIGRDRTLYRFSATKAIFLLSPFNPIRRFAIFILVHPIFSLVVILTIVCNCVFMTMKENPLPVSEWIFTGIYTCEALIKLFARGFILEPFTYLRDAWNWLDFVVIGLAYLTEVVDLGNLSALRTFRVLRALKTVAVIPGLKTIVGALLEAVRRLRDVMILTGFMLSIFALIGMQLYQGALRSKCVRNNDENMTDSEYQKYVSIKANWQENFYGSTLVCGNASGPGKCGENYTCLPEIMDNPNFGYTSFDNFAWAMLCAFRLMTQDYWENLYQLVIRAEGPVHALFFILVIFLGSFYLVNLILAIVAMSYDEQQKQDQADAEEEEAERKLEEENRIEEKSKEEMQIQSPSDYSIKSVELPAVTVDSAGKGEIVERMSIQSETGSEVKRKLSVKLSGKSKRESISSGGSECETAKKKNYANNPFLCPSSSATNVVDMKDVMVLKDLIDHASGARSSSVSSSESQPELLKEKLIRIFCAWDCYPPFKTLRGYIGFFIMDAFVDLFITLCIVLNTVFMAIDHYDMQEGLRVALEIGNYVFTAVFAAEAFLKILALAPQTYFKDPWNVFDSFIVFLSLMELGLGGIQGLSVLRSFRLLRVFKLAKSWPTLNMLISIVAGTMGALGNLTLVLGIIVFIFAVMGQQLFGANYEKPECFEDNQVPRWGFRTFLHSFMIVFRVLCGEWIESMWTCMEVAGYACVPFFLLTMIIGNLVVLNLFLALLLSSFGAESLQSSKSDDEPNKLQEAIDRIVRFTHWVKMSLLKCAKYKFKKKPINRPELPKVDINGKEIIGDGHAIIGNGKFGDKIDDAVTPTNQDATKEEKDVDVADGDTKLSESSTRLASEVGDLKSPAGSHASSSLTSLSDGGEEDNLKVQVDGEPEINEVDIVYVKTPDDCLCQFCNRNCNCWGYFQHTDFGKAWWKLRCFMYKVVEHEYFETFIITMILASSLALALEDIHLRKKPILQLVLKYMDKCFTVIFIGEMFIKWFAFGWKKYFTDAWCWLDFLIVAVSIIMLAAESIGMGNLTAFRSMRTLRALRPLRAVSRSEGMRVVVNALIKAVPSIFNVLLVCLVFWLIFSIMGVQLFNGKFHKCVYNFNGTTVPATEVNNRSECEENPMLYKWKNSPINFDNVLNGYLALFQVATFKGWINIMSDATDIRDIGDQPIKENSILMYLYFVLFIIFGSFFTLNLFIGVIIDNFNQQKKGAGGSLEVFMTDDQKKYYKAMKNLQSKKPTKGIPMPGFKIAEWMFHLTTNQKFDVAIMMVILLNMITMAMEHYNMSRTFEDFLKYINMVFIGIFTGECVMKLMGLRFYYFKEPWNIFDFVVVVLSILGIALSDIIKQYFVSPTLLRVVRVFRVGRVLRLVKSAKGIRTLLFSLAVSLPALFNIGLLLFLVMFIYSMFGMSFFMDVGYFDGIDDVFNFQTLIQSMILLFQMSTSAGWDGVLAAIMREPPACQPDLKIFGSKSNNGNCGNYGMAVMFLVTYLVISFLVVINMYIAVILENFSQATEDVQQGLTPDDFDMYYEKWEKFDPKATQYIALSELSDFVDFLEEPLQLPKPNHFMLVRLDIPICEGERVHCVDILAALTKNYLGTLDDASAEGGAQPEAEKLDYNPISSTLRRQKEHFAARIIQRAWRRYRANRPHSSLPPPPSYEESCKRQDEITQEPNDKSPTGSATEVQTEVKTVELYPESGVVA

(±)methadone
use-dependent effect on peak INa (Na+ current (INa); 50 μM, repetitive depolarization to +10 mV at 4 Hz): no detectable effect | use-dependent reduction in peak INa amplitude (Na+ current (INa); 50 μM, repetitive depolarization to +70 mV, 5-ms pulses at 4 Hz, Hp -80 mV): 20%

CN1CC[C@]23c4c5ccc(O)c4O[C@H]2[C@@H](O)C=C[C@H]3[C@H]1C5 [morphine]
effect on INa (Na+ current (INa); 350 μM, data not shown): no detectable effect | effect on ICa (Ca2+ current (ICa); 350 μM, data not shown): no detectable effect | effect on IK ([1]; 350 μM, +30 mV): no detectable effect

C=CCN1CC[C@]23c4c5ccc(O)c4O[C@H]2C(=O)CC[C@@]3(O)[C@H]1C5 [naloxone]
effect on the ability of methadone to block IK ([1]; data not shown): did not prevent

CCC(=O)C(C[C@H](C)N(C)C)(c1ccccc1)c1ccccc1 [(+)methadone]
rate of block (K) [1, 3]: 2.3 ms-1 mM-1 | rate of unblock (L) [1, 3]: 0.142 ms-1

CCC(=O)O[C@](Cc1ccccc1)(c1ccccc1)[C@H](C)CN(C)C [propoxyphene]
Kd (IK in GH3 cells): 31 µM and ~30 µM

CCC(=O)C(C[C@@H](C)N(C)C)(c1ccccc1)c1ccccc1 [(-)methadone]
factor of increase of rate of block (K) from 10 to 20 °C [1]: 2.1 | steady state IK as % of control ([1]; 100 μM, 25-ms depolarization to +80 mV, 100K//200K): 27% | rate of block (K) [1, 4]: 2.6 ms-1 mM-1 | rate of unblock (L) [1, 4]: 0.096 ms-1 | rate of block (K) [1, 3]: 2.2 ms-1 mM-1 | rate of unblock (L) [1, 3]: 0.062 ms-1 | rate of block (K) [1, 5]: 1.5 ms-1 mM-1 | rate of unblock (L) [1, 5]: 0.060 ms-1 | rate of block (K) [1, 6]: 3.2 ms-1 mM-1 | rate of unblock (L) [1, 6]: 0.084 ms-1

CCC(=O)C(CC(C)N(C)C)(c1ccccc1)c1ccccc1 (centres unmarked) [methadone]
pKa [2]: 9.64 | fraction of drug molecules charged at physiological pH (pKa of methadone): > 99% | ICa block at small depolarizations (Ca2+ current (ICa); -10 and -20 mV, 200 and 500 μM methadone): Little or no block

CCC(=O)C(CC(C)[N+](C)(C)C)(c1ccccc1)c1ccccc1.[I-] (centres unmarked) [N-methyl-methadone]
effect on INa when applied externally (Na+ current (INa); 1 mM external): no effect | effect on ICa when applied externally (Ca2+ current (ICa); 1 mM external): no effect | effect on IK when applied externally ([1]; 1 mM external): without effect; also recorded: no effect | effect of changes in external pH on IK block ([1]; internally applied, data not shown): do not affect
